Laboratory results from patent US20260207753A1, “PROTAC DEGRADATION OF FACTORS PAX3 AND FOXO1” (THE RESEARCH INSTITUTE AT NATIONWIDE CHILDREN'S HOSPITAL, priority 2022, published 2026).
“Also recorded” adds a separate entry of the source.

What was measured:
SMARCB1 = test: Abundance of SWI/SNF subunit SMARCB1 in soluble nuclear extracts; format: cell-based; conditions: 1 μM, 24 hours
Method: (§1) The inventors investigated the effect of a number of PROTAC inhibitors on fusion-positive and negative RMS cell models. The experiment was designed as follows. Fusion-positive RMS (RH4 and RH30) and fusion-negative RMS (RD and CTR) cells were treated with DMSO or 1 μM dBRD9, DL-ds2-4, or SMARCA4-31 for 24 hours. Soluble nuclear extracts were prepared to assess target degradation as well as abundance of additional SWI/SNF complex subunits and the transcription factor FOXO1 (wild-type and PAX3-FOXO1 fusion).

FOXO1 = target: T1, FOXO1 (Homo sapiens, UniProt Q12778); test: Western blot of soluble nuclear extracts: wild-type FOXO1 loss in CTR cells; format: cell-based; conditions: 1 μM, 24 hours
T1 construct: In CTR cells, which only express the wild-type FOXO1; endogenous in cells; host or cells: CTR (SMS-CTR) cells
Method: as §1

RH4 cells [1] = test: Incucyte cell proliferation, growth-curve AUC dose-response, RH4; format: cell-based, human; conditions: RH4 (fusion-positive), 96-hour, AUC of growth curve, initial data, FIG. 7A
Method: (§2) In FIG. 7A, RH4 (a PAX3-FOXO1 fusion-positive rhabdomyosarcoma cell line) and SMS-CTR (a PAX3-FOXO1 fusion-negative rhabdomyosarcoma cell line) cells were treated with increasing concentrations of SMARCA4-31 or DL-dS2-4 for a 96-hour period, and cell proliferation was monitored on an Incucyte® system. […] We explored why RH4 and SMS-CTR cells display relatively high sensitivity to PROTAC treatment. The CRBN gene expresses the protein cereblon, a component of an E3 ubiquitin ligase complex. By analyzing CRBN gene expression using RNA-seq from the Cancer Cell Line Encyclopedia (CCLE) database, we show in FIG. 7B, that RH4 and SMS-CTR cells express high levels of CRBN compared to other rhabdomyosarcoma (RMS) cell lines.

SMARCC1 = test: Abundance of SWI/SNF subunit SMARCC1 in soluble nuclear extracts; format: cell-based; conditions: 1 μM, 24 hours
Method: as §1

SMARCA4 and SMARCA2 = test: Western blot of soluble nuclear extracts: ATPase (SMARCA4/SMARCA2) degradation in RH4 / rhabdomyosarcoma cells; format: cell-based, human; conditions: for PROTAC exposure time until ATPase depletion is observed: 125 nM SMARCA4-31 or 250 nM DL-dS2-4, FIG. 6B; for dose required for maximal ATPase depletion: FIG. 6A; for loss of ATPases SMARCA4/SMARCA2: rhabdomyosarcoma cells, 1 μM, 24-hour treatment, western blot
Method: as §1
(§3) The inventors also investigated whether the effect of the compounds was reversible. Fusion-positive RMS RH4 cells were treated for 24 hours with DMSO including […] dBRD9, DL-ds2-4, or SMARCA4-31. After the treatment period cells were collected or washed extensively to remove the compound and incubated in untreated growth media for an additional 24-hour period. Soluble nuclear extracts were prepared to assess target degradation and recovery.
(§4) In FIG. 6A, RH4 cells were treated for 24 hours with the indicated dose of SMARCA4-31 (labeled S4-31) or DL-dS2-4 (labeled S2-4).
(§5) In FIG. 6B, RH4 cells were treated with 125 nM SMARCA4-31 (labeled S4-31) or 250 nM DL-dS2-4 (labeled S2-4) for the indicated time.

PAX3-FOXO1 fusion = test: Western blot of soluble nuclear extracts: PAX3-FOXO1 fusion loss in RH4 cells; format: cell-based, human; conditions: 24 hours; for loss of the PAX3-FOXO1 fusion: 1 μM; for PROTAC concentration at which PAX3-FOXO1 is fully depleted: FIG. 6A
Method: as §1, §3, §4, §5

PAX3-FOXO1 = target: T2, PAX3-FOXO1 (Homo sapiens, UniProt P23760); test: LC/MS of BAF-associated transcription factors in rhabdomyosarcoma cells: PAX3-FOXO1; format: cell-based; conditions: 1 μM, 24-hour treatment
T2 construct: endogenous in cells
Source text: (§6) In addition to PAX3-FOXO1, depleted core-regulatory transcription factors included MYOD1, an essential factor in rhabdomyosarcoma cell growth.

PBRM1 = target: T3, PBRM1 (Homo sapiens, UniProt Q86U86); test: Abundance of PBAF subunit PBRM1 in soluble nuclear extracts; format: cell-based; conditions: 24 hours; for degradation of dedicated PBAF subunit PBRM1: 1 μM, soluble nuclear extracts
T3 construct: Soluble nuclear extracts were prepared to assess target degradation as well as abundance of additional SWI/SNF complex subunits; endogenous in cells; host or cells: RH4 (washout experiment) and other RMS cells
Method: as §1, §3

RH4 cells [2] = test: Tn5 transposition library fragment length distribution (chromatin accessibility) in RH4 cells; format: cell-based, human; conditions: 24 hours, with or without washout and 24-hour recovery, FIG. 5
Method: Finally, the inventors determined if the reversible disruption of the SWU/SNF complex results in altered chromatin accessibility. FP-RMS RH4 cells were treated for 24 hours with DMSO or SMARCA4-31. A third group was treated with SMARCA4-31 for 24 hours before washout, and a 24-hour recovery period. 50.000 cells were used. Tn5 transposition followed by Illumina library amplification (15 cycles). Libraries were run on Bioanalyzer to assess fragment length distribution.

SMS-CTR cells = test: Incucyte cell proliferation, growth-curve AUC dose-response, SMS-CTR; format: cell-based; conditions: SMS-CTR (fusion-negative), 96-hour, AUC of growth curve, initial data, FIG. 7A
Method: as §2

BRD9 = target: T4, BRD9 (Homo sapiens, UniProt Q9H8M2); test: Abundance of GBAF subunit BRD9 in soluble nuclear extracts; format: cell-based; conditions: 1 μM, 24 hours
T4 construct: Soluble nuclear extracts were prepared to assess target degradation as well as abundance of additional SWI/SNF complex subunits; endogenous in cells; host or cells: RH4, RH30, RD, CTR rhabdomyosarcoma cells
T4 sequence (Q9H8M2 1-597): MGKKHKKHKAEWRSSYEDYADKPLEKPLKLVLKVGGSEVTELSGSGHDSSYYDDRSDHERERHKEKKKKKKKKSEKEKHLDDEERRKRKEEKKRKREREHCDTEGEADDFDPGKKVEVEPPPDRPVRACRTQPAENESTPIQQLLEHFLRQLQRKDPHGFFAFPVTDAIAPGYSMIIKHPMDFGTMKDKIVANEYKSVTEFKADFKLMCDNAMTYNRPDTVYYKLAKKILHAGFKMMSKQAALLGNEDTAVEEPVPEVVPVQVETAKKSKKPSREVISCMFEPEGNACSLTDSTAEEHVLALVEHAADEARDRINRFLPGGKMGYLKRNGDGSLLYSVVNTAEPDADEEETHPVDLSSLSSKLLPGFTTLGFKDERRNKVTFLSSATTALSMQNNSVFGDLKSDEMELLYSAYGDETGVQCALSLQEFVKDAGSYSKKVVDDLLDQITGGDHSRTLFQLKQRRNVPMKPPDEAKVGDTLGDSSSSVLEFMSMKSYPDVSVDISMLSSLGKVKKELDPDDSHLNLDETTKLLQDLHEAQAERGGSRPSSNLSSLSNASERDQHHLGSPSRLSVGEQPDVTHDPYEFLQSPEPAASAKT
Method: as §1

DPF2 = test: Abundance of BAF subunit DPF2 in soluble nuclear extracts; format: cell-based; conditions: 1 μM, 24 hours
Method: as §1

MYOD1 = test: LC/MS of BAF-associated transcription factors in rhabdomyosarcoma cells: MYOD1; format: cell-based; conditions: 1 μM, 24-hour treatment
Source text: as §6

T1 sequence (Q12778 whole entry): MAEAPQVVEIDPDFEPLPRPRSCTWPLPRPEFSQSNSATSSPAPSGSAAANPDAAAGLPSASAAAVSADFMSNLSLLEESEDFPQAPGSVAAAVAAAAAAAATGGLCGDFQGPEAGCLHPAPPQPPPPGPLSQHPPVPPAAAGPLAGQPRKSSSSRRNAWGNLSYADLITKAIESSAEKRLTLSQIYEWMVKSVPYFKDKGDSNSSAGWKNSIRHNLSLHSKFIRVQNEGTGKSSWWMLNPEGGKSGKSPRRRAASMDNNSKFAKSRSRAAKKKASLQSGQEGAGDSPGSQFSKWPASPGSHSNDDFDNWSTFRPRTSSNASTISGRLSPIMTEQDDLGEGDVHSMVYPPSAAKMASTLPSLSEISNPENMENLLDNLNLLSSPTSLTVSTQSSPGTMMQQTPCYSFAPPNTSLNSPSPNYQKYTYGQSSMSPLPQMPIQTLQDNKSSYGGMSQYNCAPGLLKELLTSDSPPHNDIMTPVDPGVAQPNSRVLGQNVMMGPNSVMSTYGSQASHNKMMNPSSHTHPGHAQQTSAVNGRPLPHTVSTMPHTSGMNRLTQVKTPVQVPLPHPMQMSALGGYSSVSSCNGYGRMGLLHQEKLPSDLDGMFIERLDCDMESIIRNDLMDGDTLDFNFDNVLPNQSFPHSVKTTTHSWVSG
T3 sequence (Q86U86 whole entry): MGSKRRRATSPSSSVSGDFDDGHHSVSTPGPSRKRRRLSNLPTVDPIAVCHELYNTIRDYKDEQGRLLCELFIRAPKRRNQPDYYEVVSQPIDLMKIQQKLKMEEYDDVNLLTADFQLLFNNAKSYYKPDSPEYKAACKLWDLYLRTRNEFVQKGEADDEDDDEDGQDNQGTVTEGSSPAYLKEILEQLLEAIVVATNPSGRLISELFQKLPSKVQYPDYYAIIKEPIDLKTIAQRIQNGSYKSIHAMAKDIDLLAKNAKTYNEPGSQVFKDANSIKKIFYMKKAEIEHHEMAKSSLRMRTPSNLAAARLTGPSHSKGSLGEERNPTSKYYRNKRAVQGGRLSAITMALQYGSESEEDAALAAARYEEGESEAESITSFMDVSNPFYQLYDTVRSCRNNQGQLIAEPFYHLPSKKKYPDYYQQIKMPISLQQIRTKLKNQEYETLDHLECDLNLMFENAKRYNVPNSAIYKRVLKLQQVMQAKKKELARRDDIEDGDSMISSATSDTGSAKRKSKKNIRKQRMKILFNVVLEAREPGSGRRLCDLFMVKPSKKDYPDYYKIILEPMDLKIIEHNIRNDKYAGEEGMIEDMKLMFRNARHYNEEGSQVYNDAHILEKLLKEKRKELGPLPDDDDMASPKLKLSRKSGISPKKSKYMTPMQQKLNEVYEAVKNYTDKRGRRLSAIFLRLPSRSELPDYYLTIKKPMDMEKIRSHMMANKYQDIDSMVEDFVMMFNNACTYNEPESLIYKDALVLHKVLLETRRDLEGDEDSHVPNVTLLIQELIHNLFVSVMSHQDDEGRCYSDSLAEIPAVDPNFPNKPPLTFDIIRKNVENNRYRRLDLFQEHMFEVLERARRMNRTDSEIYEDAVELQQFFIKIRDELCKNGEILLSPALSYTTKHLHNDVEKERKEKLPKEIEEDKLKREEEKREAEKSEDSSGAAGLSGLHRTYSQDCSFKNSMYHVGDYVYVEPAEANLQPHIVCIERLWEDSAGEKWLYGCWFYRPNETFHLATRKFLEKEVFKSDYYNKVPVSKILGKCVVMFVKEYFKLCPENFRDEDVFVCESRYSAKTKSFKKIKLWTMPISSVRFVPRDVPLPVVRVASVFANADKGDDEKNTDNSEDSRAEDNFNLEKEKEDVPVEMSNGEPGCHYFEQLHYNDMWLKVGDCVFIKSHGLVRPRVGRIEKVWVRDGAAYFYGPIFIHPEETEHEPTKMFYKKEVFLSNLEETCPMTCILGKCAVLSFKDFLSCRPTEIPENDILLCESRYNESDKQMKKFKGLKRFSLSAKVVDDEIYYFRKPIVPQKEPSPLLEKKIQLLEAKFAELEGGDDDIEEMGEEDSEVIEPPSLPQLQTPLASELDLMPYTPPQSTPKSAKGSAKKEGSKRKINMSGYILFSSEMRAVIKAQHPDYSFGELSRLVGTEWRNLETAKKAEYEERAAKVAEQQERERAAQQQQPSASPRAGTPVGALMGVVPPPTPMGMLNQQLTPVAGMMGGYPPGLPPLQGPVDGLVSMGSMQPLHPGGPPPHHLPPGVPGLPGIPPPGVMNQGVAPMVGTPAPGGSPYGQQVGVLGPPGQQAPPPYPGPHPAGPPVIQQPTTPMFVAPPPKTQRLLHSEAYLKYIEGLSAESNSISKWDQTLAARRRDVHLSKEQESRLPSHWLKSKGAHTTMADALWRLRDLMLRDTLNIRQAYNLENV
T2 sequence (P23760 with tags, fused parts or gaps limits assumed): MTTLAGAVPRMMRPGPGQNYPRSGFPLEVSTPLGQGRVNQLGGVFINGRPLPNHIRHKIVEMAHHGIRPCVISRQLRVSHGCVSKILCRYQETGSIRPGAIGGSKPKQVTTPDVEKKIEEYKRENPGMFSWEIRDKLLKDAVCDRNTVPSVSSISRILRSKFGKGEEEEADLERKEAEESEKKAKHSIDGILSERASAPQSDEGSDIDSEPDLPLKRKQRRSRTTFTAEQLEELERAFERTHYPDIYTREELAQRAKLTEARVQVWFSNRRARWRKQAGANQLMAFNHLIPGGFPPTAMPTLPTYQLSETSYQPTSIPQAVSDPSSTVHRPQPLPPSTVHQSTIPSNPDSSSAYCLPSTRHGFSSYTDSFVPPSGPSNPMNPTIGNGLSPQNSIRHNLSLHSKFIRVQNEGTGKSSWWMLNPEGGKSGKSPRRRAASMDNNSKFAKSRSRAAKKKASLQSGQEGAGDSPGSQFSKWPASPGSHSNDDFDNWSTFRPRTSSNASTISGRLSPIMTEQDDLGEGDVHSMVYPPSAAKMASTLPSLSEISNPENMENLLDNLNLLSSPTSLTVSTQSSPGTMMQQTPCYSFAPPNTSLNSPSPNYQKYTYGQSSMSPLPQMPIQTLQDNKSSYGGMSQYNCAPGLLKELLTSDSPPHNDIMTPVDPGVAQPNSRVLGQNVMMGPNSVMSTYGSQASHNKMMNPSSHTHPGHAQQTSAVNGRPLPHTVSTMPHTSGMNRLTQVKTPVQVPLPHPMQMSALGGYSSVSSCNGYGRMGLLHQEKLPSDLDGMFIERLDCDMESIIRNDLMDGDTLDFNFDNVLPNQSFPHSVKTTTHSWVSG

Q: What does the source list for O=C1CCC(N2C(=O)c3ccc(NCCCCCCCCOCCc4cccc(N5C[C@H]6C[C@@H]5CN6/C=C/C(=O)c5ccccc5O)c4)cc3C2=O)C(=O)N1 (some centres unmarked) [SMARCA4-31]?
A: abundance of core subunit SMARCB1 (SMARCB1): remained intact; loss of wild-type FOXO1 (FOXO1): FOXO1 loss; also recorded: concurrent loss; efficacy in inhibiting cell growth (concentration range) (RH4 cells [1]): sub-micromolar efficacy; degradation of core SWI/SNF subunit SMARCC1 (SMARCC1): degraded; PROTAC exposure time until ATPase depletion is observed (SMARCA4 and SMARCA2; RH4 cells): approximately 20 hours; extent of SMARCA4 degradation, reversibility experiment (SMARCA4 and SMARCA2; RH4 cells, 24 hours, 1 µM, FIG. 4): More complete degradation; dose required for maximal ATPase depletion (SMARCA4 and SMARCA2; RH4 cells, 24 hours): 125 nM; loss of ATPases SMARCA4/SMARCA2 (SMARCA4 and SMARCA2): concurrent loss; loss of the PAX3-FOXO1 fusion (PAX3-FOXO1 fusion): loss of the PAX3-FOXO1 fusion; also recorded: concurrent loss; extent of PAX3-FOXO1 degradation, reversibility experiment (PAX3-FOXO1 fusion; 1 µM, FIG. 4): More complete degradation; PROTAC concentration at which PAX3-FOXO1 is fully depleted (PAX3-FOXO1 fusion): 62.5 nM; PAX3-FOXO1 depletion by LC/MS (PAX3-FOXO1): depleted; degradation of dedicated PBAF subunit PBRM1 (PBRM1): specific degradation; extent of PBRM1 degradation, reversibility experiment (PBRM1; RH4 cells, 1 µM, FIG. 4): More complete degradation; chromatin accessibility (fragment length signatures) (RH4 cells [2]): alterations to the accessibility landscape; efficacy in inhibiting cell growth (concentration range) (SMS-CTR cells): sub-micromolar efficacy; abundance of GBAF subunit BRD9 (BRD9): remained intact; abundance of BAF subunit DPF2 (DPF2): remained intact; MYOD1 depletion by LC/MS (MYOD1): depleted

Q: O=C1CCC(N2C(=O)c3cccc(NCCCCNC(=O)c4cccc(C#Cc5cc(NC(=O)Nc6ccnc(Cl)c6)ccn5)c4)c3C2=O)C(=O)N1 (racemic) [DL-dS2-4] was tested. Which “abundance of core subunit SMARCB1” value (SMARCB1) did it give?
A: remained intact

Q: What about the “loss of wild-type FOXO1” value (FOXO1) of the same compound?
A: FOXO1 loss; also recorded: concurrent loss

Q: What about the “efficacy in inhibiting cell growth (concentration range)” value (RH4 cells [1]) of the same compound?
A: sub-micromolar efficacy

Q: What about the “degradation of core SWI/SNF subunit SMARCC1” value (SMARCC1) of the same compound?
A: degraded

Q: What about the “PROTAC exposure time until ATPase depletion is observed” value (SMARCA4 and SMARCA2; RH4 cells) of the same compound?
A: approximately 20 hours

Q: What about the “dose required for maximal ATPase depletion” value (SMARCA4 and SMARCA2; RH4 cells, 24 hours) of the same compound?
A: 250 nM

Q: What about the “loss of ATPases SMARCA4/SMARCA2” value (SMARCA4 and SMARCA2) of the same compound?
A: concurrent loss

Q: What about the “loss of the PAX3-FOXO1 fusion” value (PAX3-FOXO1 fusion) of the same compound?
A: loss of the PAX3-FOXO1 fusion; also recorded: concurrent loss

Q: And the “PROTAC concentration at which PAX3-FOXO1 is fully depleted” value (PAX3-FOXO1 fusion)?
A: 62.5 nM

Q: What about the “degradation of dedicated PBAF subunit PBRM1” value (PBRM1) of the same compound?
A: specific degradation

Q: What about the “efficacy in inhibiting cell growth (concentration range)” value (SMS-CTR cells) of the same compound?
A: sub-micromolar efficacy

Q: And the “abundance of GBAF subunit BRD9” value (BRD9)?
A: remained intact

Q: What about the “abundance of BAF subunit DPF2” value (DPF2) of the same compound?
A: remained intact
